# Laboratory results from US20260234123A1, “Inhibitors of NLRP3” (Mwyngil Therapeutics, Inc., priority 2023, published 2026).
# Test system: IL1b release THP-1
# Assay: IL1b release THP-1 (ELISA)
# Type: cell-based
# Conditions: Homo sapiens, THP-1, read-out: THP 1 IL 1b, EC50, μM
# Procedure: Example A. Primary Assays Used to Determine IL1b Release THP-1 (ELISA)
# • Microbiological safety cabinet, classII (NuAire, USA) • CO2 incubator (VWR Science, USA) • Countess Automated Cell Counter (Invitrogen, USA, cat. number C10227) • Centrifuge CM 6M (Elmi, Latvia) • Serological pipettes 2, 5, 10, 25, 50, 100 ml sterile (Santa Cruz Biotechnology, Inc., USA, sc-200277, sc-200279, sc-200281, sc-200283, Sc-213234, sc-516777) • Single and multichannel pipettes 0.2-10 μL, 50-1200 μL (Eppendorf AG-Hamburg, Germany) • 50 mL PP sterile tubes (Greiner, cat. Number 210261).
# • RPMI-1640 (PanEco, C330) • Sodium pyruvate (Paneco, cat. number Φ023) • Non-Essential amino acids 50× (Paneco, Φ116) • Essential amino acids 50× (Paneco, Φ115/50) • FBS (Hyclone Laboratories Inc, USA, SV30160.03) • Antibiotic-antimycotic (Gibco, USA, 15240-062) • 2-mercaptoethanol 1000×55 mM (Gibco, USA, 21985-023) • LPS-EB ultrapure (invivogen, cat. number tlrl-3pelps) • Nigericin (Sigma, cat. number N7143) • ELISA kit, IL-1beta (Cat #A-8766, Interleukin-1 beta-EIA-BEST, Vector Best). LPS Preparation (5 mg/ml): • 1. Add 1 ml of endotoxin-free water according manufacturer's protocol • 2. Vortex until complete solubilization • 3. Aliquote and store at […] for long term storage.
# • 1. Add methanol to 10 mg of powder to produce the 10 mM Nigericin solution • 2. Vortex until complete solubilization • 3. Store at 4° C.
# THP-1 cells were propagated in RPMI-1640 (10% FBS, Antibiotic-antimycotic 1×, non-Essential amino acids 1×, Essential amino acids 1×, Sodium pyruvate 2×, 2-mercaptoethanol 0.05 mM) at 37° C. and at 5% CO2 in an incubator.
# • 1. THP-1 cells were spined at 100 g for 5 min in 50 ml tube. • 2. THP-1 cells were resuspended in warm culture medium (w/o FBS, w/o Antibiotic-antimycotic, non-Essential amino acids 1×, Essential amino acids 1×, Sodium pyruvate 2×) to the concentration 1,3×10^6 cells. • 3. THP-1 cells were primed in tube with 1 μg/ml of LPS for 4 h at 37° C. and at 5% CO2 in an incubator. • 4. THP-1 cells were stimulated with 10 μM of Nigericin (Cat #N7143-10 MG, Sigma Aldrich) for 2 h at 37° C. and at 5% CO2 in an incubator. • 5. After the full activation, the supernatant was collected and the levels of IL-1β were assessed via ELISA according manufacturer instructions (Cat #A-8766, Vector Best).
# The average EC50 values are shown in Table A, wherein “A” corresponds to EC50: A≤0.5 μM, “B” corresponds to 0.5 μM<EC50≤1.0 μM, “C” 1.0 μM<EC50≤5.0 μM, “D” corresponds to 5.0 μM<EC50≤30 μM and “E” corresponds to EC50>30 μM.
row,Compound,EC50
1,"Cc1cc(-c2ccc(C(F)(F)F)cc2NS(C)(=O)=O)nnc1N[C@@H]1CCCN(C(C)C)C1 [Compound 25, (R)—N-(2-(6-((1-Isopropylpiperidin-3-yl)amino)-5-methylpyridazin-3-yl)-5-(trifluoromethyl)phenyl) methanesulfonamide]",< 0.5 µM
2,"Cc1cc(-c2ccc(C(F)(F)F)cc2NS(C)(=O)=O)nnc1N[C@@H]1CCCN(C2CCC2)C1 [Compound 31, (R)—N-(2-(6-((1-Cyclobutylpiperidin-3-yl)amino)-5-methylpyridazin-3-yl)-5-(trifluoromethyl)phenyl) methanesulfonamide]",< 0.5 µM

# Same assay, conditions: Homo sapiens; average EC50; THP-1 cells primed with 1 μg/ml LPS 4 h, stimulated with 10 μM Nigericin 2 h; IL-1β in supernatant by ELISA; read-out: THP 1 IL 1b, EC50
row,EC50,Compound
1,1 to 5 µM,"Cc1cc(C(F)(F)F)cc(NS(C)(=O)=O)c1-c1ccc(N[C@@H]2CCCN(C)C2)nn1 [Compound 1, (R)—N-(3-methyl-2-(6-((1-methylpiperidin-3-yl)amino)pyridazin-3-yl)-5-(trifluoromethyl)phenyl) methanesulfonamide]"
2,0.5 to 1 µM,"CCN1CCC[C@@H](Nc2ccc(-c3c(C)cc(C(F)(F)F)cc3NS(C)(=O)=O)nn2)C1 [Compound 2, (R)—N-(2-(6-((1-Ethylpiperidin-3-yl)amino)pyridazin-3-yl)-3-methyl-5-(trifluoromethyl)phenyl) methanesulfonamide]"
3,0.5 to 1 µM,"Cc1cc(N[C@@H]2CCCN(C)C2)nnc1-c1ccc(C(F)(F)F)cc1NS(C)(=O)=O [Compound 4, (R)—N-(2-(4-Methyl-6-((1-methylpiperidin-3-yl)amino)pyridazin-3-yl)-5-(trifluoromethyl)phenyl) methanesulfonamide]"
4,< 0.5 µM,"CCN1CCC[C@@H](Nc2cc(C)c(-c3ccc(C(F)(F)F)cc3NS(C)(=O)=O)nn2)C1 [Compound 5, (R)—N-(2-(6-((1-Ethylpiperidin-3-yl)amino)-4-methylpyridazin-3-yl)-5-(trifluoromethyl)phenyl) methanesulfonamide]"
5,0.5 to 1 µM,"Cc1cc(N[C@@H]2CCCN(CCO)C2)nnc1-c1ccc(C(F)(F)F)cc1NS(C)(=O)=O [Compound 6, (R)—N-(2-(6-((1-(2-Hydroxyethyl)piperidin-3-yl)amino)-4-methylpyridazin-3-yl)-5-(trifluoromethyl)phenyl) methanesulfonamide]"
6,< 0.5 µM,"Cc1cc(-c2ccc(C(F)(F)F)cc2NS(C)(=O)=O)nnc1N[C@@H]1CCCN(C)C1 [Compound 7, (R)—N-(2-(5-Methyl-6-((1-methylpiperidin-3-yl)amino)pyridazin-3-yl)-5-(trifluoromethyl)phenyl) methanesulfonamide]"
7,< 0.5 µM,"CCN1CCC[C@@H](Nc2nnc(-c3ccc(C(F)(F)F)cc3NS(C)(=O)=O)cc2C)C1 [Compound 8, (R)—N-(2-(6-((1-Ethylpiperidin-3-yl)amino)-5-methylpyridazin-3-yl)-5-(trifluoromethyl)phenyl) methanesulfonamide]"
8,0.5 to 1 µM,"Cc1cc(-c2ccc(C(F)(F)F)cc2NS(C)(=O)=O)nnc1N[C@@H]1CCCN(CCO)C1 [Compound 9, (R)—N-(2-(6-((1-(2-Hydroxyethyl)piperidin-3-yl)amino)-5-methylpyridazin-3-yl)-5-(trifluoromethyl)phenyl) methanesulfonamide]"
9,1 to 5 µM,"CCN1CCC[C@@H](Nc2cc(C)c(-c3ccc(C(F)(F)F)c4cn[nH]c34)nn2)C1 [Compound 15, (R)—N-(1-Ethylpiperidin-3-yl)-5-methyl-6-(4-(trifluoromethyl)-1H-indazol-7-yl)pyridazin-3-amine]"
10,> 30 µM,"CCN1CCC[C@@H](Nc2nnc(-c3ccc(C(F)(F)F)c4cn[nH]c34)cc2C)C1 [Compound 18, (R)—N-(1-ethylpiperidin-3-yl)-4-methyl-6-(4-(trifluoromethyl)-1H-indazol-7-yl)pyridazin-3-amine]"
11,> 30 µM,"Cc1cc(-c2ccc(C(F)(F)F)c3cn[nH]c23)nnc1N[C@@H]1CCCN(CCO)C1 [Compound 19, 2-[(3R)-3-[[4-methyl-6-[4-(trifluoromethyl)-1H-indazol-7-yl]pyridazin-3-yl]amino]-1-piperidyl]ethanol]"
12,< 0.5 µM,"Cc1cc(-c2ccc(C(F)(F)F)cc2NS(C)(=O)=O)nnc1N[C@@H]1CCCN(C2CCCC2)C1 [Compound 26, (R)—N-(2-(6-((1-Cyclopentylpiperidin-3-yl)amino)-5-methylpyridazin-3-yl)-5-(trifluoromethyl)phenyl) methanesulfonamide]"
13,< 0.5 µM,Cc1cc(N[C@@H]2CCCN(C(C)C)C2)nnc1-c1ccc(C(F)(F)F)cc1NS(C)(=O)=O [Compound 27]
14,< 0.5 µM,"CCN1CCC[C@@H](Nc2nnc(-c3ccc(C(F)(F)F)cc3NS(C)(=O)=O)cc2C2CC2)C1 [Compound 28, (R)—N-(2-(5-Cyclopropyl-6-((1-ethylpiperidin-3-yl)amino)pyridazin-3-yl)-5-(trifluoromethyl)phenyl) methane-sulfonamide]"
15,1 to 5 µM,"Cc1cc(-c2ccc(C(F)(F)F)cc2NC(=O)C(C)C)nnc1N[C@@H]1CCCN(C(C)C)C1 [Compound 29, N-[2-[6-[[(3R)-1-isopropyl-3-piperidyl]amino]-5-methyl-pyridazin-3-yl]-5-(trifluoromethyl)phenyl]-2-methyl-propanamide]"
16,< 0.5 µM,"CCN1CCC[C@@H](Nc2nnc(-c3ccc(C(F)(F)F)cc3NS(C)(=O)=O)c3c2C2CCC3CC2)C1 [Compound 30, (R)—N-(2-(4-((1-Ethylpiperidin-3-yl)amino)-5,6,7,8-tetrahydro-5,8-ethanophthalazin-1-yl)-5-(trifluoromethyl)phenyl) methanesulfonamide]"

# The remaining lines, values behind:
row,Compound,EC50
1,"Cc1cc(N[C@@H]2CCCN(C)C2)nnc1-c1ccc(C(F)(F)F)c2c1NS(=O)(=O)N2 [Compound 10, (R)-4-(4-Methyl-6-((1-methylpiperidin-3-yl)amino)pyridazin-3-yl)-7-(trifluoromethyl)-1,3-dihydrobenzo[c][1,2,5]thiadiazole 2,2-dioxide]",5 to 30 µM
2,"Cc1cc(N[C@@H]2CCCN(C)C2)nnc1-c1ccc(C(F)(F)F)c2cn[nH]c12 [Compound 14, (R)-5-Methyl-N-(1-methylpiperidin-3-yl)-6-(4-(trifluoromethyl)-1H-indazol-7-yl)pyridazin-3-amine]",1 to 5 µM
3,"Cc1cc(N[C@@H]2CCCN(CCO)C2)nnc1-c1ccc(C(F)(F)F)c2cn[nH]c12 [Compound 16, (R)-2-(3-((5-Methyl-6-(4-(trifluoromethyl)-1H-indazol-7-yl)pyridazin-3-yl)amino)piperidin-1-yl) ethan-1-ol]",1 to 5 µM
4,"Cc1cc(-c2ccc(C(F)(F)F)c3cn[nH]c23)nnc1N[C@@H]1CCCN(C)C1 [Compound 17, (R)-4-Methyl-N-(1-methylpiperidin-3-yl)-6-(4-(trifluoromethyl)-1H-indazol-7-yl)pyridazin-3-amine]",5 to 30 µM
5,"Cc1cc(N[C@@H]2CCCN(C)C2)nnc1-c1ccc(C(F)(F)F)c2nn[nH]c12 [Compound 20, (R)-5-Methyl-N-(1-methylpiperidin-3-yl)-6-(4-(trifluoromethyl)-1H-benzo[d][1,2,3]triazol-7-yl)pyridazin-3-amine]",> 30 µM
6,"Cc1cc(-c2ccc(C(F)(F)F)c3nn[nH]c23)nnc1N[C@@H]1CCCN(C)C1 [Compound 21, 4-methyl-N-[(3R)-1-methyl-3-piperidyl]-6-[7-(trifluoromethyl)-3H-benzotriazol-4-yl]pyridazin-3-amine]",5 to 30 µM
7,"Cc1c(N[C@@H]2CCCN(C)C2)nnc(-c2ccc(C(F)(F)F)c3nn[nH]c23)c1C [Compound 22, (R)-4,5-dimethyl-N-(1-methylpiperidin-3-yl)-6-(4-(trifluoromethyl)-1H-benzo[d][1,2,3]triazol-7-yl)pyridazin-3-amine]",5 to 30 µM
8,CN1CCC[C@@H](Nc2cc(C(F)(F)F)c(-c3ccc(C(F)(F)F)c4nn[nH]c34)nn2)C1 [Compound 23],> 30 µM
9,CN1CCC[C@@H](Nc2nnc(-c3ccc(C(F)(F)F)c4nn[nH]c34)cc2C(F)(F)F)C1 [Compound 24],> 30 µM
